Patent publication US11932622B1, “2-(1-(2-hydroxypropyl)-4,5-diphenyl-1H-imidazol-2-yl)pyridine as an anticancer compound” (KING FAISAL UNIVERSITY, priority 2023, dated 2024)

How the values were obtained:
[1] = test system: human prostate cancer cells (PC3); test: Assessment of cytotoxicity by SRB assay (PC3); assay type: cell-based; settings: 0.01 μM to 100 μM, 72 h
Protocol: (§1) The human prostate cancer cells (PC3) and human osteosarcoma cells (MG-63) were obtained from Nawah Scientific Inc. (Mokatam, Cairo, Egypt) and cultured in DMEM (Dulbecco's modified eagle's medium), Gibco, USA, supplemented with fetal bovine serum (FBS) at a concentration of 10% and 100 U/mL of penicillin and streptomycin (PS). The Cells were incubated at 37° C. in a humidified environment that contained 5% C02.
(§2) Cells were seeded in 96-well plates as aliquots of 100 μL cell suspension and incubated in a complete media for 24 h. Afterward, cells were treated with 2-(1-(2-hydroxypropyl)-4,5-diphenyl-1H-imidazol-2-yl)pyridine at diverse concentrations ranging from 0.01 μM to 100 μM for 72 h. Then, cells were fixed at 4° C. for one hour with 150 μL of 10% trichloroacetic acid (TCA). After washing the cells five times with distilled water, 70 μL of sulforhodamine (SRB) solution (0.4% w/v) was added and incubated for 10 min at room temperature in a dark place. […] Then, 150 μL of Tris pH 10.5 (10 mM) was added, and the absorbance was measured at 540 nm using a BMG LABTECH®-FLUOstar Omega microplate reader (Ortenberg, Germany). Half maximal inhibitory concentrations (IC50) values were calculated for each experiment using GraphPad Prism 6 software. […]
(§3) The inhibition was calculated using the following equation: Inhibition %=100−Average Viability

[2] = test system: human osteosarcoma cells (MG-63); test: Assessment of cytotoxicity by SRB assay (MG-63); assay type: cell-based; settings: 0.01 μM to 100 μM, 72 h
Protocol: as §1, §2, §3

CC(O)Cn1c(-c2ccccn2)nc(-c2ccccc2)c1-c1ccccc1 (stereo not drawn) [2-(1-(2-hydroxypropyl)-4,5-diphenyl-1H-imidazol-2-yl)pyridine]
antiproliferative activity against prostate cancer cells (PC3) [1]: excellent antiproliferative activities | antiproliferative activity against osteosarcoma (MG-63) cells [2]: excellent antiproliferative activities | melting point: 112 to 114 °C
